The supplement of paper PMC10307832

What follows are cell lines tested with COC1=CC=C(C=C1)CN2C=CC3=C2C=C(C=C3)C(=O)NO + C[C@@H](Oc1cc(-c2cnn(C3CCNCC3)c2)cnc1N)c1c(Cl)ccc(F)c1Cl [Crizotinib] (partner 1 µM) (assay: relative viability (nuclei count vs DMSO), 5 days (fraction); higher = more cells survive). Details: first compound 0.08 µM.
In short: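 Cells from lung cancer lines were seeded into 1536-well plates and, one day later, dosed by pin tool. Treatments were either a single drug or a fixed dose of an anchor drug with five library-drug doses (not always all listed) in √10 steps. After 5 days, nuclei were stained in a one-step fixation (final 0.05% Triton X-100, 1% formaldehyde, 1 ug/ml Hoechst) and counted on 4× images, and relative viability is the treated-to-vehicle nuclei ratio, as the median of duplicate plates.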

Compared with LC-2-ad, NCI-H1651 is higher in relative viability: 0.33 for the first, 0.853 for the second.

Going from COR-L23 to HCC-827, the relative viability rises from 0.499 to 0.87.

Going from RERF-LC-KJ to NCI-H1563, the relative viability rises from 0.618 to 0.718.

First: NCI-H3122
Second: BEN
The relative viability of the first is lower: 0.266 for the first, 0.756 for the second.

First: UMC-11
Second: NCI-H2085
The relative viability of the first is lower: 0.269 for the first, 0.804 for the second.

First: NCI-H727
Second: 201T
The relative viability of the first is lower: 0.578 for the first, 1.02 for the second.

Compared with NCI-H2228, LOU-NH91 is higher in relative viability: 0.45 for the first, 0.693 for the second.

First: NCI-H1666
Second: NCI-H650
The relative viability of the first is higher: 1.18 for the first, 0.378 for the second.

First: NCI-H1993
Second: HCC-44
The relative viability of the first is lower: 0.698 for the first, 0.746 for the second.

First: NCI-H647
Second: NCI-H2126
The relative viability of the first is lower: 0.868 for the first, 1.02 for the second.

First: NCI-H1755
Second: PC-3 [JPC-3]
The relative viability of the first is lower: 0.789 for the first, 0.969 for the second.

First: NCI-H1792
Second: NCI-H2087
The relative viability of the first is higher: 0.969 for the first, 0.819 for the second.

Same assay, conditions: first compound 0.253 µM

Compared with LC-2-ad, NCI-H1651 is higher in relative viability: 0.531 for the first, 0.928 for the second.

Compared with COR-L23, HCC-827 is higher in relative viability: 0.77 for the first, 0.968 for the second.

First: RERF-LC-KJ
Second: NCI-H1563
The relative viability of the first is lower: 0.756 for the first, 0.847 for the second.

Compared with NCI-H3122, BEN is higher in relative viability: 0.275 for the first, 0.814 for the second.

Going from UMC-11 to LCLC-97TM1, the relative viability falls from 0.704 to 0.285.

Going from NCI-H2085 to A-427, the relative viability falls from 0.944 to 0.857.

Going from NCI-H727 to NCI-H838, the relative viability falls from 0.945 to 0.911.

Going from 201T to NCI-H2228, the relative viability falls from 0.999 to 0.549.

First: LOU-NH91
Second: NCI-H1666
The relative viability of the first is lower: 0.738 for the first, 1.08 for the second.

Compared with NCI-H650, NCI-H1993 is higher in relative viability: 0.832 for the first, 0.919 for the second.

Going from HCC-44 to NCI-H647, the relative viability rises from 0.781 to 1.

Compared with NCI-H2126, NCI-H1755 is lower in relative viability: 1.08 for the first, 0.852 for the second.

Compared with PC-3 [JPC-3], NCI-H1792 is lower in relative viability: 1.02 for the first, 0.905 for the second.

With NCI-H2087 the relative viability was 0.842.

Same assay, conditions: first compound 0.8 µM

Compared with LC-2-ad, NCI-H1651 is higher in relative viability: 0.467 for the first, 0.859 for the second.

Going from COR-L23 to HCC-827, the relative viability rises from 0.503 to 0.898.

First: RERF-LC-KJ
Second: NCI-H1563
The relative viability of the first is lower: 0.864 for the first, 0.957 for the second.

Compared with NCI-H3122, BEN is higher in relative viability: 0.292 for the first, 0.894 for the second.

Going from UMC-11 to LCLC-97TM1, the relative viability falls from 0.564 to 0.395.

Compared with NCI-H2085, A-427 is higher in relative viability: 0.853 for the first, 1.03 for the second.

First: NCI-H727
Second: NCI-H838
The relative viability of the first is higher: 0.98 for the first, 0.882 for the second.

Going from 201T to NCI-H2228, the relative viability falls from 1.06 to 0.535.

First: LOU-NH91
Second: NCI-H1666
The relative viability of the first is lower: 0.752 for the first, 1.08 for the second.

First: NCI-H650
Second: NCI-H1993
The relative viability of the first is lower: 0.68 for the first, 0.803 for the second.

Going from HCC-44 to NCI-H647, the relative viability rises from 0.824 to 1.04.

Compared with NCI-H2126, NCI-H1755 is lower in relative viability: 1.04 for the first, 0.858 for the second.

Going from PC-3 [JPC-3] to NCI-H1792, the relative viability falls from 1.02 to 1.01.

With NCI-H2087 the relative viability was 0.993.

Same assay, conditions: first compound 2.53 µM

Going from LC-2-ad to NCI-H1651, the relative viability rises from 0.408 to 0.82.

Going from COR-L23 to HCC-827, the relative viability rises from 0.574 to 0.961.

Compared with RERF-LC-KJ, NCI-H1563 is higher in relative viability: 0.816 for the first, 0.921 for the second.

Compared with NCI-H3122, BEN is higher in relative viability: 0.317 for the first, 0.869 for the second.

Going from UMC-11 to LCLC-97TM1, the relative viability falls from 0.554 to 0.259.

Going from NCI-H2085 to A-427, the relative viability falls from 0.928 to 0.828.

Going from NCI-H727 to NCI-H838, the relative viability rises from 0.71 to 0.853.

Compared with 201T, NCI-H2228 is lower in relative viability: 1.08 for the first, 0.492 for the second.

Going from LOU-NH91 to NCI-H1666, the relative viability rises from 0.763 to 0.992.

First: NCI-H650
Second: NCI-H1993
The relative viability of the first is lower: 0.71 for the first, 0.901 for the second.

Going from HCC-44 to NCI-H647, the relative viability rises from 0.852 to 0.914.

Going from NCI-H2126 to NCI-H1755, the relative viability falls from 1.03 to 0.928.

Going from PC-3 [JPC-3] to NCI-H1792, the relative viability falls from 1.05 to 0.918.

Cell Line NCI-H2087 has a relative viability of 0.913.

Same assay, conditions: first compound 8 µM

Compared with LC-2-ad, NCI-H1651 is higher in relative viability: 0.397 for the first, 0.826 for the second.

First: COR-L23
Second: HCC-827
The relative viability of the first is lower: 0.632 for the first, 0.878 for the second.

First: RERF-LC-KJ
Second: NCI-H1563
The relative viability of the first is lower: 0.814 for the first, 0.943 for the second.

Going from NCI-H3122 to BEN, the relative viability rises from 0.284 to 0.851.

Going from UMC-11 to LCLC-97TM1, the relative viability falls from 0.56 to 0.237.

Compared with NCI-H2085, A-427 is lower in relative viability: 0.926 for the first, 0.884 for the second.

Compared with NCI-H727, NCI-H838 is higher in relative viability: 0.592 for the first, 0.829 for the second.

Going from 201T to NCI-H2228, the relative viability falls from 0.969 to 0.423.

Compared with LOU-NH91, NCI-H1666 is higher in relative viability: 0.704 for the first, 1.03 for the second.

First: NCI-H650
Second: NCI-H1993
The relative viability of the first is lower: 0.656 for the first, 0.881 for the second.

Compared with HCC-44, NCI-H647 is higher in relative viability: 0.815 for the first, 1.01 for the second.

Compared with NCI-H2126, NCI-H1755 is lower in relative viability: 1.06 for the first, 0.879 for the second.

First: PC-3 [JPC-3]
Second: NCI-H1792
The relative viability of the first is higher: 0.965 for the first, 0.697 for the second.

Cell Line NCI-H2087 has a relative viability of 0.767.
